# Measurements reported in US11786514B2, “Sustained release aminopyridine composition” (priority 2003, dated 2023).
# Legend:
# [1] = Single escalating dose pharmacokinetics and tolerability in patients with chronic incomplete SCI (Example 6)
# Method: Each patient was to receive each dose in an ascending fashion. Each dose was to be followed by a 7-day washout period. […] Patients were to continue their fast for 4 hours after dosing and then a standard meal was to be served. Blood samples for pharmacokinetic analysis were to be obtained at Hour 0 (immediately preceding study drug administration) and 1, 2, 3, 4, 5, 6, 8, 10, 12, 16, 20, and 24 hours after each dose. A baseline urine sample was to be collected prior to dosing and urine was to be collected for 24 hours after administration of the study drug at the following intervals: 0.1 to 4 hours; 4.1 to 8 hours; 8.1 to 12 hours; and 12.1 to 24 hours.
# [2] = Steady state pharmacokinetics and safety in patients with MS (Example 5); format: in vivo, human
# Method: This example describes the results of an open-label study to assess the steady state pharmacokinetics of orally administered fampridine (4-aminopyridine) compositions of the present invention in subjects with Multiple Sclerosis. […] Blood samples for pharmacokinetic analysis were collected on Days 1, 7/8, and 14/15 at the following intervals: immediately prior to drug administration (baseline), hourly for the first 8 hours, and 10, 12, and 24 hours post-dose. Additional blood samples were collected 14, 18, and 20 hours post-dose on Day 14, and 30 and 36 hours post-dose on Day 15.
# [3] = Single dose, dose proportionality pharmacokinetics and safety in patients with multiple sclerosis (Example 4); format: in vivo, human
# Method: This example details the pharmacokinetic properties of Fampridine-SR in tablets of the present invention administered to patients with multiple sclerosis. Plasma samples were analyzed for fampridine using a validated LC/MS/MS assay with a sensitivity of 2 ng/mL. Noncompartmental pharmacokinetic parameter values were calculated using standard methodology.
# This was an open-label, multi-center, dose proportionality study of orally administered fampridine in patients with multiple sclerosis. Single doses of fampridine were to be given in escalating doses (5 mg, 10 mg, 15 mg, and 20 mg) with at least a four-day interval between administration of each dose of drug. Safety evaluations were to be performed during the 24 hour period following administration of fampridine and blood samples were to be taken at the following times to determine pharmacokinetic parameters: hour 0 (pre-dose), hours 1-8, and hours 10, 12, 14, 18, and 24.
# Twenty-three subjects received all 4 treatments, and one subject received only 3 treatments; data from all treatments were analyzed. Dose-dependent parameters (e.g., peak plasma concentration and areas-under-the curve) were normalized to a 10 mg dose for among-dose comparisons.
# [4] = Multiple oral dose pharmacokinetics in patients with SCI (Example 3); conditions: both sexes, human, in vivo
# Method: This example details the plasma concentration of different dosage tablets of a aminopyridine in compositions of the present invention administered to patients with spinal cord injury. Pharmacokinetic results are presented for the subset of 11 patients who completed all dose levels. […] The time of the peak and the plasma elimination half-lives were independent of dose. […] The […] of fampridine ranged from 5.7 to 6.9 hours. There were no apparent differences between males and females.
# [5] = single doses 10-25 mg, patients with chronic incomplete SCI
# [6] = 20 mg twice daily for two weeks, patients with MS
# [7] = all doses 5-20 mg, mean and 95% confidence interval, patients with MS
compound,measurement,setting,value
"Nc1ccncc1 [fampridine, 4-aminopyridine]",Cmax,"[1]; 25 mg single dose, fasted, patients with chronic incomplete SCI",67.4 ng/mL
same,"time of peak concentration (mean tmax) post-dose, over dose levels","[1]; human, in vivo",3 to 4 h
same,Cmax,"[1]; human, in vivo, 10 mg",27.7 ng/mL
same,AUC0-24h as percentage of AUC0-∞,[1]; [5],at least 92%
same,"mean plasma half-life (t1/2), independent of dose",[1]; [5],approximately 6 hours
same,changes in corrected QT intervals or QRS amplitudes,[2]; [6],no apparent clinically significant changes
same,"changes in mean clinical laboratory values, vital signs, or physical examination findings from baseline to last visit",[2]; [6],no clinically significant changes
same,most common treatment-related adverse event,[2]; [6],Dizziness
same,other treatment-related adverse events,[2]; [6],"nausea, ataxia, insomnia, and tremor"
same,tolerability,"[2]; 20 mg/dose twice daily for two weeks, subjects with multiple sclerosis",well tolerated
same,terminal half-life,[3]; [7],"5.47 (5.05, 5.89) h"
same,terminal rate constant,[3]; [7],"0.14 (0.13, 0.15) h^−1"
same,area-under-the-concentration-time curve (normalized to a 10 mg dose),"[3]; human, in vivo","254 (238, 270) ng-h/ml"
same,clearance,"[3]; human, in vivo",637 mL/min
same,"differences between pharmacokinetic parameters (AUC, Cmax, t1/2) normalized to the 10.0 mg dose","[3]; human, in vivo",no significant differences
same,extrapolated area-under-the-concentration-time curve (normalized to a 10 mg dose),"[3]; human, in vivo","284 (266, 302) ng-h/ml"
same,observed peak plasma fampridine concentration (normalized to a 10 mg dose),"[3]; human, in vivo","24.12 (23.8, 26.6) ng/ml"
same,tolerability,"[3]; single doses 5-20 mg, patients with MS",well tolerated
same,Tmax,[4],2.2 to 3 h
same,half-life,[4],5.7 to 6.9 h
same,Cmax,"[4]; po, 60 mg",152 ng/mL
